# Source: ChEMBL document CHEMBL3259599, “Novel colchicine-site binders with a cyclohexanedione scaffold identified through a ligand-based virtual screening approach” (J Med Chem, 2014)
# Assays:
# CCRF-CEM = test: Antiproliferative activity against human CEM cells after 48 to 96 hrs by coulter counter analysis; type: functional, cell-based
# [1] = Antiproliferative activity against HMEC1 after 4 days by coulter counter analysis; type: functional; conditions: Homo sapiens, HMEC-1, 96 h
# [2] = Antiproliferative activity against BAEC after 3 days by coulter counter analysis; type: functional; conditions: Bos taurus, 72 h
# L1210 = test: Antiproliferative activity against mouse L1210 cells after 48 to 96 hrs by coulter counter analysis; type: functional, cell-based
# HeLa = test: Antiproliferative activity against human HeLa cells after 4 days by coulter counter analysis; type: functional, cell-based; conditions: 96 h
# [3] = Antiproliferative activity against MBEC after 3 days by coulter counter analysis; type: functional, Mus musculus
SMILES,IC50 (CCRF-CEM) [µM],IC50 [1] [µM],IC50 [2] [µM],IC50 (L1210) [µM],IC50 (HeLa) [µM],IC50 [3] [µM]
CCC(Nc1ccc(OC)cc1)=C1C(=O)CC(c2ccccc2)CC1=O (centres undefined),67,≥ 100,≥ 100,58,≥ 100,57
CCCC(Nc1ccccc1OC)=C1C(=O)CC(c2ccccc2)CC1=O (centres undefined),41,31,16,36,59,27
COc1ccccc1NC(C)=C1C(=O)CC(c2ccccc2F)CC1=O (centres undefined),4.9,4.3,2.7,6.3,4.8,5.4
CC(Nc1c(F)cccc1F)=C1C(=O)CC(c2ccccc2)CC1=O (centres undefined),21,6.6,8.4,11,17,9.2
COc1ccccc1NC(C)=C1C(=O)CC(c2ccc(Cl)cc2)CC1=O (centres undefined),28,55,42,22,58,46
COc1ccccc1NC(C)=C1C(=O)CC(c2ccccc2C)CC1=O (centres undefined),7.2,5.8,3.2,11,13,6.8
CC(Nc1ccccc1F)=C1C(=O)CC(c2ccccc2)CC1=O (centres undefined),1.1,0.93,0.51,1.9,3.4,1
COc1cccc(OC)c1NC(C)=C1C(=O)CC(c2ccccc2)CC1=O (centres undefined),1.4,1.4,0.46,1,1.1,1.2
CC(Nc1ccccc1C(F)(F)F)=C1C(=O)CC(c2ccccc2)CC1=O (centres undefined),18,7.7,8.1,14,32,8.7
CCC(Nc1ccc(OC)c(OC)c1)=C1C(=O)CC(c2ccccc2)CC1=O (centres undefined),> 100,> 100,> 100,> 100,> 100,> 100
CCC(Nc1cccc(OC)c1)=C1C(=O)CC(c2ccccc2)CC1=O (centres undefined),45,18,64,32,66,16
CCC(Nc1cc(OC)c(OC)c(OC)c1)=C1C(=O)CC(c2ccccc2)CC1=O (centres undefined),> 100,> 100,> 100,> 100,> 100,> 100
COc1ccc(OC)c(NC(C)=C2C(=O)CC(c3ccccc3)CC2=O)c1 (centres undefined),> 6,2.6,2.6,36,46,3.2
CCC(Nc1cccc(O)c1)=C1C(=O)CC(c2ccccc2)CC1=O (centres undefined),48,13,7.8,15,75,12
CC(Nc1ccccc1Cl)=C1C(=O)CC(c2ccccc2)CC1=O (centres undefined),0.64,0.56,0.29,0.7,0.71,0.47
COc1cccc(C2CC(=O)C(=C(C)Nc3ccccc3C)C(=O)C2)c1 (centres undefined),0.72,0.67,0.48,0.26,0.66,0.64
CCC(Nc1ccccc1)=C1C(=O)CC(c2ccccc2)CC1=O (centres undefined),21,15,16,22,56,8.3
COc1ccccc1NC(C)=C1C(=O)CC(C)(C)CC1=O,> 100,76,48,> 100,> 100,71
COc1ccc(C2CC(=O)C(=C(C)Nc3ccccc3OC)C(=O)C2)cc1 (centres undefined),> 100,> 100,> 100,> 100,> 100,> 100
